# Data as given in US20040102364A1, “Backbone cyclized radiolabelled somatostatin analogs” (priority 2001, published 2004).
# Read-outs that look alike come from different tables or passages of the source.
# Legend:
# SST-R2 = SST-R2 (Homo sapiens, UniProt P30874); assay: Inhibition of SRIF binding to SST-R2 (species not stated)
# Protocol: The SST analogs were tested for their potency in inhibition of the binding of ^125I-Tyr^11-SRIF (based on the method described by Raynor et. al., Molecular Pharmacology 43: 838, 1993) to membrane preparations expressing the transmembranal SST receptors (SST-R1, 2, 3, 4 or 5). The receptor preparations used for these tests were either from the cloned human receptors selectively and stably expressed in Chinese Hamster Ovary (CHO) cells or from cell lines naturally expressing the SST-Rs. […] The binding reactions were filtered, the filters were washed and the bound radioactivity was counted in β counter after addition of scintillation solution. […]
# rat SST-R1 = rat SST-R1 (Rattus norvegicus, UniProt P28646); assay: Subtype selectivity binding, rat SST-R1
# Protocol: (§1) The SST analogs were tested for their potency in inhibition of the binding of ^125I-Tyr^11-SRIF (based on the method described by Raynor et. al., Molecular Pharmacology 43: 838, 1993) to membrane preparations expressing the transmembranal SST receptors (SST-R1, 2, 3, 4 or 5). The receptor preparations used for these tests were either from the cloned human receptors selectively and stably expressed in Chinese Hamster Ovary (CHO) cells or from cell lines naturally expressing the SST-Rs. […] The binding reactions were filtered, the filters were washed and the bound radioactivity was counted in β counter after addition of scintillation solution.
# (§2) MPS-30012-02, 30012-08 and 30012-24 were all re-synthesized naked, purified and radiolabelled with ^99mTc. In vitro binding studies on all three ^99mTc compounds was performed. 30012-05, 30012-08 and 30012-24 were screened for subtype selectivity analysis.
# rat SST-R2 = rat SST-R2 (Rattus norvegicus, UniProt P30680); assay: Subtype selectivity binding, rat SST-R2
# Protocol: as §1, §2
# rat SST-R3 = rat SST-R3 (Rattus norvegicus, UniProt P30936); assay: Subtype selectivity binding, rat SST-R3
# Protocol: as §1, §2
# rat SST-R4 = rat SST-R4 (Rattus norvegicus, UniProt P30937); assay: Subtype selectivity binding, rat SST-R4
# Protocol: as §1, §2
# rat SST-R5 = target: T1, rat SST-R5 (Rattus norvegicus, UniProt P30938); assay: Subtype selectivity binding, rat SST-R5
# T1 sequence (P30938 1-363): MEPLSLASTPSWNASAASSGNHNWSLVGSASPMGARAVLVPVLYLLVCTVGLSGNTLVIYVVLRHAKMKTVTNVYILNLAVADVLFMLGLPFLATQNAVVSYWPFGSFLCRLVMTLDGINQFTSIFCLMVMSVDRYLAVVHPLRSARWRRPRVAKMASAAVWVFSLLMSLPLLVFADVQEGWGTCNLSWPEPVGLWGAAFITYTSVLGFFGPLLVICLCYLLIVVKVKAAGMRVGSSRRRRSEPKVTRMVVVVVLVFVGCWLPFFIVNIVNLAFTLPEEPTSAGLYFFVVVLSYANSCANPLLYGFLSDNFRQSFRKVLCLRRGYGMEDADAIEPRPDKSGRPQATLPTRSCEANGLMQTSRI
# Protocol: as §1, §2
# SST-R2, sequence (P30874 whole entry): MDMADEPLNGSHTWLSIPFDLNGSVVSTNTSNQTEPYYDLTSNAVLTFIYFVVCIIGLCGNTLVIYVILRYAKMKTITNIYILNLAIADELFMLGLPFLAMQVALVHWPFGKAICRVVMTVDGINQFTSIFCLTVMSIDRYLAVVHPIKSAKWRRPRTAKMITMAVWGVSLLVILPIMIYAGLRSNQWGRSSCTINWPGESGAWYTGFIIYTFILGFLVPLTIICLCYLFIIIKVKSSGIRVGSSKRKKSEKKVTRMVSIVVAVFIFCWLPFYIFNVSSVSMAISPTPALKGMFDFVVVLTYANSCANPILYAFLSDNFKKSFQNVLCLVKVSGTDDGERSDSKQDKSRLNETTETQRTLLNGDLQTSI
# rat SST-R1, sequence (P28646 whole entry): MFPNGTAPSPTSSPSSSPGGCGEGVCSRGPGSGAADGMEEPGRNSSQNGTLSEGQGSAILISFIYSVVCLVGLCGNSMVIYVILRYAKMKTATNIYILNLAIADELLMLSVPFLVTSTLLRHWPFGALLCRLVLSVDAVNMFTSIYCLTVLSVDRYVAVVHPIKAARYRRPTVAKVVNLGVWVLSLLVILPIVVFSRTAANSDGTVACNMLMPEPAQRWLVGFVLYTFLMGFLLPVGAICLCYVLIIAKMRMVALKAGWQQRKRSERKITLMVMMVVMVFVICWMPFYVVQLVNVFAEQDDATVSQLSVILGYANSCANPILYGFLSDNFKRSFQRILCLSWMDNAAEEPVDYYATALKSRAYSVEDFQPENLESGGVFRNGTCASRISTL
# rat SST-R2, sequence (P30680 whole entry): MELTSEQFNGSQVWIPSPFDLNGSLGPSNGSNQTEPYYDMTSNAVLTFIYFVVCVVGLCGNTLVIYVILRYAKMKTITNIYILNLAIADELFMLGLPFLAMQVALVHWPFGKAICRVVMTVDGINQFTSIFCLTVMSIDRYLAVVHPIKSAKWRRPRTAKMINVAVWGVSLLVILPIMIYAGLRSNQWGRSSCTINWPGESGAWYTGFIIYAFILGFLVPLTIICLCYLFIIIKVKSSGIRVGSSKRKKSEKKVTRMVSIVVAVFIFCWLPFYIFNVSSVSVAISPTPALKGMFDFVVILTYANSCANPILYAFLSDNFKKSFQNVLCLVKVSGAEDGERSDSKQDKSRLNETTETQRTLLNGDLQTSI
# rat SST-R3, sequence (P30936 whole entry): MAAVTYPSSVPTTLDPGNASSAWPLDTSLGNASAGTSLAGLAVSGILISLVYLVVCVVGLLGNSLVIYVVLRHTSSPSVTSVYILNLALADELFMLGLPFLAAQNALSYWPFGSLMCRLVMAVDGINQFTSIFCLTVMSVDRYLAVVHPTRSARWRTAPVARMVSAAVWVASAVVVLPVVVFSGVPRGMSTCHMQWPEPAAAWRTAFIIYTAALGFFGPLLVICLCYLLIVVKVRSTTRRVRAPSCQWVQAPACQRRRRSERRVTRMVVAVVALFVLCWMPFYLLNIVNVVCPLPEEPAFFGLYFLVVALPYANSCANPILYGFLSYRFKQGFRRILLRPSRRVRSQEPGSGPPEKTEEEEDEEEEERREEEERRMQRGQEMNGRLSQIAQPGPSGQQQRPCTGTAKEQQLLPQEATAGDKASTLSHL
# rat SST-R4, sequence (P30937 whole entry): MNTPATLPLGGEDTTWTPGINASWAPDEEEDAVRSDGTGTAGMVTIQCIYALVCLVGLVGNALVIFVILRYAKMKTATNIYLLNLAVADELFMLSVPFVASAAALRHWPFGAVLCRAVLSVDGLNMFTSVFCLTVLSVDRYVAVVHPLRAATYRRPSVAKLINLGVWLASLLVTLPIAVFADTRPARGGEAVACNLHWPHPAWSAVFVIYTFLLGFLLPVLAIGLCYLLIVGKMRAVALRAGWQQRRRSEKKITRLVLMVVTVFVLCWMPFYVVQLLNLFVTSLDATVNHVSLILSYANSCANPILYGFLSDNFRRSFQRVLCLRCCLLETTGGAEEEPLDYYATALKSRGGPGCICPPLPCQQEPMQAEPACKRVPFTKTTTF
molecule,measurement,setting,value
In-DTPA-b-Ala-Phe(C3**)-Cys*-Phe-(D)Trp-Lys-Thr-Cys*-Phe(N3**)-NH2 [PTR 3349],SRIF Inhibited (%) 10 nM,"SST-R2; 10 nM, SST-R2",20%
same,SRIF Inhibited (%) 100 nM,"SST-R2; 100 nM, SST-R2",54%
"C[C@@H](O)[C@@H]1NC(=O)[C@H](CCCCN)NC(=O)[C@@H](Cc2c[nH]c3ccccc23)NC(=O)[C@H](Cc2c[nH]c3ccccc23)NC(=O)[C@H](Cc2ccccc2)NC(=O)[C@@H](NC(=O)CCNC(=O)CN(CCN(CCN(CC(=O)O)CC(=O)O)CC(=O)O)CC(=O)O)CCNC(=O)CCCN(CC(N)=O)C(=O)[C@H](Cc2ccccc2)NC1=O [PTR 3339, In-DTPA-b-Ala-Dab*-Phe-Trp-(D)Trp-Lys-Thr-Phe-GlyC3*-NH2]",inhibition at 0.01 µM,"SST-R2; Quick Screen, 10 nM, SST-R2, read-out: Quick Screen SRIF Inhibited (%) 10 nM",27%
same,inhibition at 0.1 µM,"SST-R2; Quick Screen, 100 nM, SST-R2, read-out: Quick Screen SRIF Inhibited (%) 100 nM",69%
same,inhibition at 10 pM,SST-R2; read-out: IC50 Screen SRIF Inhibited (%) 0.01 nM,-11%
same,inhibition at 0.0001 µM,SST-R2; read-out: IC50 Screen SRIF Inhibited (%) 0.1 nM,3%
same,inhibition at 0.001 µM,SST-R2; read-out: IC50 Screen SRIF Inhibited (%) 1 nM,17%
same,inhibition at 0.01 µM,SST-R2; read-out: IC50 Screen SRIF Inhibited (%) 10 nM,52%
same,inhibition at 0.1 µM,SST-R2; read-out: IC50 Screen SRIF Inhibited (%) 100 nM,78%
In-DTPA-5-aminopentanoic acid-Dab*-Phe-Trp-(D)Trp-Lys-Thr-Phe-GlyC3*-NH2 [PTR 3343],IC50 Screen SRIF Inhibited (%) 0.01 nM,"SST-R2; IC50 Screen, 0.01 nM, SST-R2",−16%
same,IC50 Screen SRIF Inhibited (%) 0.1 nM,"SST-R2; IC50 Screen, 0.1 nM, SST-R2",−3.8%
same,IC50 Screen SRIF Inhibited (%) 1 nM,"SST-R2; IC50 Screen, 1 nM, SST-R2",10%
same,IC50 Screen SRIF Inhibited (%) 10 nM,"SST-R2; IC50 Screen, 10 nM, SST-R2",44%
same,IC50 Screen SRIF Inhibited (%) 100 nM,"SST-R2; IC50 Screen, 100 nM, SST-R2",76%
same,Quick Screen SRIF Inhibited (%) 10 nM,"SST-R2; Quick Screen, 10 nM, SST-R2",37%
same,Quick Screen SRIF Inhibited (%) 100 nM,"SST-R2; Quick Screen, 100 nM, SST-R2",79%
In-DTPA-Gly-Phe(C3**)-Cys*-Phe-(D)Trp-Lys-Thr-Cys*-Phe(N3**)-NH2 [PTR 3347],SRIF Inhibited (%) 10 nM,"SST-R2; 10 nM, SST-R2",38%
same,SRIF Inhibited (%) 100 nM,"SST-R2; 100 nM, SST-R2",51%
In-DTPA-5-aminopentanoic acid-Phe(C3**)-Cys*-Phe-(D)Trp-Lys-Thr-Cys*-Phe(N3**)-NH2 [PTR 3353],SRIF Inhibited (%) 10 nM,"SST-R2; 10 nM, SST-R2",14%
same,SRIF Inhibited (%) 100 nM,"SST-R2; 100 nM, SST-R2",59%
In-DTPA-3-aminomethylbenzoic acid-Phe(C3**)-Cys*-Phe-(D)Trp-Lys-Thr-Cys*-Phe(N3**)-NH2 [PTR 3355],SRIF Inhibited (%) 10 nM,"SST-R2; 10 nM, SST-R2",8%
same,SRIF Inhibited (%) 100 nM,"SST-R2; 100 nM, SST-R2",34%
ReO-MA-Dpr(Gly)-βAla-Dab*-Phe-Trp-(D)Trp-Lys-Thr-Phe-GlyC3*-NH2 [PTR 3399],IC50,"rat SST-R1; # rows: determined in rat somatostatin receptors, read-out: Concentration (nM) of SST analogs to inhibit SRIF binding by 50%, SST-R 1",156 nM
same,IC50,"rat SST-R1; rat SST-R1, read-out: Selectivity: IC50, nM, rat SST-R-1",156 nM
same,IC50,"rat SST-R2; # rows: determined in rat somatostatin receptors, read-out: Concentration (nM) of SST analogs to inhibit SRIF binding by 50%, SST-R 2",1.6 nM
same,IC50,"rat SST-R2; rat SST-R2, read-out: Selectivity: IC50, nM, rat SST-R-2",1.6 nM
same,IC50,"rat SST-R3; # rows: determined in rat somatostatin receptors, read-out: Concentration (nM) of SST analogs to inhibit SRIF binding by 50%, SST-R 3",103 nM
same,IC50,"rat SST-R3; rat SST-R3, read-out: Selectivity: IC50, nM, rat SST-R-3",103 nM
same,IC50,"rat SST-R4; # rows: determined in rat somatostatin receptors, read-out: Concentration (nM) of SST analogs to inhibit SRIF binding by 50%, SST-R 4",15 nM
same,IC50,"rat SST-R4; rat SST-R4, read-out: Selectivity: IC50, nM, rat SST-R-4",15 nM
same,binding to SST-R5 (in words),rat SST-R5,binds
same,IC50,"rat SST-R5; # rows: determined in rat somatostatin receptors, read-out: Concentration (nM) of SST analogs to inhibit SRIF binding by 50%, SST-R 5",1.3 nM
same,IC50,"rat SST-R5; rat SST-R5, read-out: Selectivity: IC50, nM, rat SST-R-5",1.3 nM
